Measured values taken from patent publication US20210085676A1, “TREATMENT FOR AGE- AND OXIDATIVE STRESS-ASSOCIATED MUSCLE ATROPHY AND WEAKNESS” (Oklahoma Medical Research Foundation, priority 2018, published 2021).
“Also recorded” adds a separate entry of the source.

Key:
old wildtype mice = experiment: Aging study in old wildtype mice (24-26 months), 8-10 months treatment; type: in vivo, mouse
Excerpt: The present inventors studied a group of old wildtype mice (24-26 months) with and without 8-10 months treatment with CDN1163. […] Further, the old mice show significant atrophy of the gastrocnemius muscles when compared to baseline group (≈10%, p<0.05). […] The inventors also measured the muscle force generating capacity in the mouse EDL muscles because of large body of literature showing reduced strength of extensor digitorum longus (EDL) muscle with aging. EDL muscle weakness in the old wild-type mice (≈11%, p<0.05) was consistent with previous studies, when compared to the baseline group. […] This effect was consistent at stimulation frequencies for maximal and sub-maximal (≈50% of maximal force) tetanic forces normalized for muscle mass. […] As such, CDN1163 was able to reduce muscle weakness, while not having side-effects related to muscle half relaxation time and time to maximal twitch force.

Sod1−/− mice = experiment: Body mass and gastrocnemius muscle mass in Sod1−/− mouse model of accelerated sarcopenia; type: in vivo; settings: 50 mg/kg i.p. 3 times per week, 7 weeks
Experimental: Animals. The generation and characterization of the Sod1^−/− mice is described in detail elsewhere (3, 24). Female ≈2 months old C57BL/6J wild-type (WT; n=12-18) and Sod1^−/− mice (n=12-18) were divided into four groups and treated with either vehicle (10% DMSO, 10% Tween-80 in PBS) or CDN1163 (50 mg/kg) by intraperitoneal injection three times per week for 7 weeks. Care and management of the mice was executed according to The Guide for the Care and Use of Laboratory Animals and approved by the institutional Animal Care and Use Committee at the Oklahoma Medical Research Foundation (OKC, Okla., USA). CDN1163 prevents gastrocnemius muscle atrophy in the Sod1^−/− mice. […] At 2 months of age, neither absolute (FIG. 2B) nor normalized (FIG. 2C) gastrocnemius muscle mass is statistically lower in Sod1^−/− versus WT female mice. However, at the end of the 7 week period (˜4 months of age) there is a significant decrease in both absolute and normalized gastrocnemius muscle mass in the untreated Sod1^−/− mice compared to untreated WT mice (FIGS. 2B, 2C) consistent with the inventor's previous reports(3).

[1] = system: F2-isoprostanes in quadriceps muscle; experiment: Oxidative damage by F2-isoprostane level in quadriceps muscle of treated mice; type: in vivo, mouse; settings: Sod1−/− mice
Experimental: Animals. The generation and characterization of the Sod1^−/− mice is described in detail elsewhere (3, 24). Female ≈2 months old C57BL/6J wild-type (WT; n=12-18) and Sod1^−/− mice (n=12-18) were divided into four groups and treated with either vehicle (10% DMSO, 10% Tween-80 in PBS) or CDN1163 (50 mg/kg) by intraperitoneal injection three times per week for 7 weeks. Care and management of the mice was executed according to The Guide for the Care and Use of Laboratory Animals and approved by the institutional Animal Care and Use Committee at the Oklahoma Medical Research Foundation (OKC, Okla., USA). Analysis of oxidative damage by F2-isoprostane level. The levels of F2-isoprostanes in quadriceps muscle were measured using thin layer chromatography and GC-mass spectrometry as described previously (25). CDN1163 reduces the oxidative damage in the Sod1^−/− mice. The inventors have previously reported increased oxidative damage in the skeletal muscles of Sod1^−/− mice (6) that might be contributing to muscle atrophy and weakness. […] Therefore the inventors investigated whether CDN1163 can prevent oxidative stress-induced damage by measuring the levels of F2-isoprostanes, an indicator of lipid peroxidation, in the quadriceps muscles.

[2] = system: isolated mitochondria from the gastrocnemius muscle; experiment: Mitochondrial H2O2 production (Amplex red-HRP) in isolated mitochondria from gastrocnemius muscle of treated mice; type: in vivo, mouse; settings: Sod1−/− mice
Experimental: (§1) Animals. The generation and characterization of the Sod1^−/− mice is described in detail elsewhere (3, 24). Female ≈2 months old C57BL/6J wild-type (WT; n=12-18) and Sod1^−/− mice (n=12-18) were divided into four groups and treated with either vehicle (10% DMSO, 10% Tween-80 in PBS) or CDN1163 (50 mg/kg) by intraperitoneal injection three times per week for 7 weeks. Care and management of the mice was executed according to The Guide for the Care and Use of Laboratory Animals and approved by the institutional Animal Care and Use Committee at the Oklahoma Medical Research Foundation (OKC, Okla., USA).
Mitochondrial function. Mitochondrial isolation and assays for H2O2 generation were performed in gastrocnemius muscle as described previously by the inventor's laboratory (27). Freshly isolated mitochondria were used for H2O2 release assay using the Amplex red-HRP method. Isolated mitochondrial are exposed to respiratory substrates and HRP (1 U Ml-1) in the assay buffer catalyzes the H2O2-dependent oxidation of non-fluorescent Amplex Red (80 μM) (Molecular Probes, Eugene, Oreg., USA) to fluorescent resofurin red (excitation λ=544 nm, emission λ=590 nm at 37° C.). The slope of the increase in fluorescence was converted to the rate of H2O2 production with standard curve.
CDN1163 attenuates mitochondrial dysfunction in the Sod1^−/− mice. It is well documented that elevated levels of cytosolic Ca^2+ lead to increased mitochondrial ROS production (16). The inventors have previously shown that the mitochondria from the Sod1^−/− mice show structural and functional defects (4, 5). To test whether the activation of SERCA pump function improves mitochondrial function, the inventors measured mitochondrial ROS production as H2O2 emission using isolated mitochondria from the gastrocnemius muscle. […] CDN1163 treatment in the Sod1^−/− mice returns glutamate/malate stimulated H2O2 generation to WT levels (FIG. 4A).

SERCA = SERCA Ca2+-dependent ATPase activity in gastrocnemius muscle homogenates of treated mice; type: in vivo, mouse; settings: Sod1−/− mice, 50 mg/kg i.p. 3 times per week, 7 weeks
Experimental: as §1, with “USA). SERCA activity. The measurement of SERCA activity was performed in the muscle homogenates at 37° C. using a spectrophotometric assay as previously described (26). CDN1163 rescues the SERCA activity in the Sod1^−/− mice. Ca^2+-dependent Ca^2+-ATPase activity was measured in gastrocnemius muscle homogenates to determine the effects of CDN1163 on SERCA function. […] Levels of SERCA1 and SERCA2 mRNA and protein were not changed in Sod1^−/− mice and were not altered by CDN1163 treatment (FIGS. 1C, 1D).” for “USA).”

ob/ob mouse model = settings: reference 17; cited from earlier work
[3] = system: EDL muscle of Sod1−/− mice; experiment: Contractile measurements in isolated EDL muscle of treated Sod1−/− mice; type: in vivo, mouse
Experimental: Animals. The generation and characterization of the Sod1^−/− mice is described in detail elsewhere (3, 24). Female ≈2 months old C57BL/6J wild-type (WT; n=12-18) and Sod1^−/− mice (n=12-18) were divided into four groups and treated with either vehicle (10% DMSO, 10% Tween-80 in PBS) or CDN1163 (50 mg/kg) by intraperitoneal injection three times per week for 7 weeks. Care and management of the mice was executed according to The Guide for the Care and Use of Laboratory Animals and approved by the institutional Animal Care and Use Committee at the Oklahoma Medical Research Foundation (OKC, Okla., USA). Contractile Measurements. Contractile force generation was measured in isolated extensor digitorum longus (EDL) muscle using a 1200A in vitro test system (Aurora Scientific Inc.) as described elsewhere (7). Briefly, muscles were individually tied to a model 300C servomotor (Aurora Scientific Inc.) and fixed within a water bath containing an oxygenated (95% O2, 5% CO2) Krebs-Ringer solution (in mM: 137 NaCl, 5 KCl, 1 MgSO4, 1 NaH2PO4, 24 NaHCO3, 2 CaCl2) maintained at 32 C. Computer controlled stimulation was applied through a model 701C stimulator (Aurora Scientific Inc.). Force frequency curves were generated with stimulation frequencies between 1 and 300 Hz, while the fatigue protocol consisted of repeated 150 Hz stimuli, every 5 s for 400 s. All data were recorded and analyzed using commercial software (DMC and DMA, Aurora Scientific). Specific force (N/cm^2) was measured using muscle length and mass. Example 3. CDN1163 prevents contractile dysfunction in the Sod1^−/− mice. In agreement with the inventor's previous findings, the inventors measured a significant decline in the in-vitro specific force measured in EDL muscle of Sod1^−/− mice (˜19%, p<0.05) when compared to WT mice (FIG. 3A). […] On the other hand, CDN1163 has no effect on the time to peak contraction (TTP) and half relaxation time (RT1/2) in the EDL muscle during twitch contractions (FIGS. 3B, 3C).

[4] = old wildtype mice 24-26 months, versus 16 month old baseline
[5] = 50 mg/kg i.p. 3 times per week, 7 weeks
[6] = EDL muscle, twitch contractions, 7 weeks treatment

With Cc1ccc2cccc(NC(=O)c3ccc(OC(C)C)cc3)c2n1 [CDN1163, 4-(1-Methylethoxy)-N-(2-methyl-8-quinolinyl)-benzamide] the “Muscle half relaxation time” value (old wildtype mice; old wildtype mice) was “no significant effects”, the “Time to maximal twitch force” value (old wildtype mice; old wildtype mice) was “no significant effects” and the “Age-related atrophy of the gastrocnemius muscles” value (old wildtype mice; [4]) was “completely prevented”. For the same molecule, the “Age-related reduction in body weight” value (old wildtype mice; [4]) was “did not prevent”, the “Age-related decline in EDL muscle force” value (old wildtype mice; old wildtype mice, maximal and sub-maximal tetanic forces normalized for muscle mass) was “prevented this decline in force” and the “Increase in (normalized) gastrocnemius muscle mass versus untreated Sod1−/− mice” value (Sod1−/− mice; Sod1−/− mice) was 23%. For the same molecule, the “Gastrocnemius muscle mass / atrophy” value (Sod1−/− mice; Sod1−/− mice, 50 mg/kg) was “restores; also recorded: completely prevented this atrophy”, the “Body weight (body mass)” value (Sod1−/− mice; WT or Sod1−/− mice, 50 mg/kg) was “did not alter” and the “Reduction of oxidative damage in muscle tissue measured as F2-isoprostanes” value [1, 5] was 50%. The “F2-isoprostanes levels (lipid peroxidation)” value ([1]; quadriceps muscle, 7 weeks treatment) was “reduces; also recorded: prevented this increase”, the “Mitochondrial ROS generation” value [2, 5] was “reversed” and the “Mitochondrial H2O2 production, glutamate/malate stimulated (state-2, complex 1-linked)” value ([2]; 7 weeks treatment) was “reduces; also recorded: to WT levels”. The “Mitochondrial H2O2 production, State-1 respiration” value ([2]; without external substrate, 7 weeks treatment) was “reduces; also recorded: do not show elevated levels”, the “Maximum Ca2+ dependent SERCA (SR Ca2+-ATPase) activity” value (SERCA) was “completely restored” and the “Plasma levels of malondialdehyde (marker of oxidative stress)” value (ob/ob mouse model) was “reduce”. The “Half relaxation time (RT1/2)” value [3, 6] was “without affecting; also recorded: no effect”, the “Time to twitch peak tension / time to peak contraction (TTP)” value [3, 6] was “without affecting; also recorded: no effect” and the “Specific force of EDL muscle” value ([3]; Sod1−/− mice, 50 mg/kg i.p. 3 times per week, 7 weeks, measured in vitro, 50 mg/kg) was “completely restored”.
